Calls of active or inactive are those of the source. No cut-off for these calls is given here.
Tests used:
Staphylococcus aureus [1] = experiment: Antibacterial activity against Staphylococcus aureus ATCC 29247 at 90 uM incubated for 24 hrs by microdilution assay; assay type: functional, organism-based
Staphylococcus aureus [2] = experiment: Antibacterial activity against Staphylococcus aureus ATCC 25923 at 90 uM incubated for 24 hrs by microdilution assay; assay type: functional, organism-based
Enterococcus faecium [3] = experiment: Antibacterial activity against Enterococcus faecium ATCC 35667 at 90 uM incubated for 24 hrs by microdilution assay; assay type: functional, organism-based
Enterococcus faecium [4] = experiment: Antibacterial activity against Enterococcus faecium C15 at 90 uM incubated for 24 hrs by microdilution assay; assay type: functional, organism-based
Staphylococcus aureus [5] = experiment: Bactericidal activity against Staphylococcus aureus ATCC 29247 at 90 uM incubated for 24 hrs by microdilution assay; assay type: functional, organism-based
Staphylococcus aureus [6] = experiment: Bactericidal activity against Staphylococcus aureus ATCC 25923 at 90 uM incubated for 24 hrs by microdilution assay; assay type: functional, organism-based
Enterococcus faecium [7] = experiment: Bactericidal activity against Enterococcus faecium ATCC 35667 at 90 uM incubated for 24 hrs by microdilution assay; assay type: functional, organism-based
Enterococcus faecium [8] = experiment: Bactericidal activity against Enterococcus faecium C15 at 90 uM incubated for 24 hrs by microdilution assay; assay type: functional, organism-based
HaCaT = experiment: Cytotoxicity against human HaCaT cells assessed as reduction in cell viability at 100 uM incubated for 4 days by CellTiter 96 aqueous one solution assay; assay type: cell-based; details: 96 h
NHDF = experiment: Cytotoxicity against human HDF cells assessed as reduction in cell viability at 100 uM incubated for 7 days by CellTiter 96 aqueous one solution assay; assay type: functional, cell-based
Klebsiella pneumoniae [9] = experiment: Antibacterial activity against Klebsiella pneumoniae ATCC 13883 at 90 uM incubated for 24 hrs by microdilution assay; assay type: functional, organism-based
Klebsiella pneumoniae [10] = experiment: Antibacterial activity against Klebsiella pneumoniae ATCC 12657 at 90 uM incubated for 24 hrs by microdilution assay; assay type: functional, organism-based
Acinetobacter baumannii [11] = experiment: Antibacterial activity against Acinetobacter baumannii ATCC 19606 at 90 uM incubated for 24 hrs by microdilution assay; assay type: functional, organism-based; details: ATCC 19606 = CIP 70.34 = JCM 6841
Acinetobacter baumannii [12] = experiment: Antibacterial activity against Acinetobacter baumannii ATCC 17978 at 90 uM incubated for 24 hrs by microdilution assay; assay type: functional, organism-based
Pseudomonas aeruginosa [13] = experiment: Antibacterial activity against Pseudomonas aeruginosa ATCC 10145 at 90 uM incubated for 24 hrs by microdilution assay; assay type: functional, organism-based
Pseudomonas aeruginosa [14] = experiment: Antibacterial activity against Pseudomonas aeruginosa ATCC 49189 at 90 uM incubated for 24 hrs by microdilution assay; assay type: functional, organism-based
[15] = test system: Enterobacter cloacae subsp. cloacae; experiment: Antibacterial activity against Enterobacter cloacae ATCC 13047 at 90 uM incubated for 24 hrs by microdilution assay; assay type: functional
Klebsiella aerogenes [16] = experiment: Antibacterial activity against Enterobacter aerogenes ATCC 13048 at 90 uM incubated for 24 hrs by microdilution assay; assay type: functional
Klebsiella pneumoniae [17] = experiment: Bactericidal activity against Klebsiella pneumoniae ATCC 13883 at 90 uM incubated for 24 hrs by microdilution assay; assay type: functional, organism-based
Klebsiella pneumoniae [18] = experiment: Bactericidal activity against Klebsiella pneumoniae ATCC 12657 at 90 uM incubated for 24 hrs by microdilution assay; assay type: functional, organism-based
Acinetobacter baumannii [19] = experiment: Bactericidal activity against Acinetobacter baumannii ATCC 19606 at 90 uM incubated for 24 hrs by microdilution assay; assay type: functional, organism-based; details: ATCC 19606 = CIP 70.34 = JCM 6841
Acinetobacter baumannii [20] = experiment: Bactericidal activity against Acinetobacter baumannii ATCC 17978 at 90 uM incubated for 24 hrs by microdilution assay; assay type: functional, organism-based
Pseudomonas aeruginosa [21] = experiment: Bactericidal activity against Pseudomonas aeruginosa ATCC 10145 at 90 uM incubated for 24 hrs by microdilution assay; assay type: functional, organism-based
Pseudomonas aeruginosa [22] = experiment: Bactericidal activity against Pseudomonas aeruginosa ATCC 49189 at 90 uM incubated for 24 hrs by microdilution assay; assay type: functional, organism-based
[23] = test system: Enterobacter cloacae subsp. cloacae; experiment: Bactericidal activity against Enterobacter cloacae ATCC 13047 at 90 uM incubated for 24 hrs by microdilution assay; assay type: functional
Klebsiella aerogenes [24] = experiment: Bactericidal activity against Enterobacter aerogenes ATCC 13048 at 90 uM incubated for 24 hrs by microdilution assay; assay type: functional
[25] = Selectivity ratio of IC50 for human HaCaT cells to IC50 for human HDF cells by CellTiter 96 aqueous one solution assay

| Compound | Activity (Staphylococcus aureus [1]) | Activity (Staphylococcus aureus [2]) | Activity (Enterococcus faecium [3]) | Activity (Enterococcus faecium [4]) | Activity (Staphylococcus aureus [5]) | Activity (Staphylococcus aureus [6]) | Activity (Enterococcus faecium [7]) | Activity (Enterococcus faecium [8]) | Activity (HaCaT) | Activity (NHDF) | Activity (Klebsiella pneumoniae [9]) | Activity (Klebsiella pneumoniae [10]) | Activity (Acinetobacter baumannii [11]) | Activity (Acinetobacter baumannii [12]) | Activity (Pseudomonas aeruginosa [13]) | Activity (Pseudomonas aeruginosa [14]) | Activity [15] | Activity (Klebsiella aerogenes [16]) | Activity (Klebsiella pneumoniae [17]) | Activity (Klebsiella pneumoniae [18]) | also measured |
| --- | --- | --- | --- | --- | --- | --- | --- | --- | --- | --- | --- | --- | --- | --- | --- | --- | --- | --- | --- | --- | --- |
| C[C@@H]1CC[C@]2(OC1)O[C@H]1C[C@H]3[C@@H]4CC[C@H]5C[C@@H](O)C[C@@H](O[C@@H]6OC[C@H](O)[C@H](O)[C@H]6O)[C@]5(C)[C@H]4CC[C@]3(C)[C@H]1[C@@H]2C | inactive | inactive | inactive | inactive | inactive | inactive | inactive | inactive | Not Active | inactive | inactive | inactive | inactive | inactive | inactive | inactive | inactive | inactive | inactive | inactive | Activity (Acinetobacter baumannii [19]): inactive; Activity (Acinetobacter baumannii [20]): inactive; Activity (Pseudomonas aeruginosa [21]): inactive; Activity (Pseudomonas aeruginosa [22]): inactive; Activity [23]: inactive; Activity (Klebsiella aerogenes [24]): inactive; Ratio IC50 [25]: 3 - 11 |
| C=C1CC[C@]2(OC1)O[C@H]1C[C@H]3[C@@H]4CC[C@H]5C[C@@H](O)C[C@@H](O[C@@H]6OC[C@H](O)[C@H](O)[C@H]6O)[C@]5(C)[C@H]4CC[C@]3(C)[C@H]1[C@@H]2C | inactive | inactive | inactive | inactive | inactive | inactive | inactive | inactive | Not Active | inactive | inactive | inactive | inactive | inactive | inactive | inactive | inactive | inactive | inactive | inactive | Activity (Acinetobacter baumannii [19]): inactive; Activity (Acinetobacter baumannii [20]): inactive; Activity (Pseudomonas aeruginosa [21]): inactive; Activity (Pseudomonas aeruginosa [22]): inactive; Activity [23]: inactive; Activity (Klebsiella aerogenes [24]): inactive; Ratio IC50 [25]: 3 - 11 |
